Test results: ChEMBL document CHEMBL5325414, “Novel neuroprotective pyromeconic acid derivatives with concurrent anti-Aβ deposition, anti-inflammatory, and anti-oxidation properties for treatment of Alzheimer's disease” (Eur J Med Chem, 2023)

Assays:
[1] = Antioxidant activity by measuring oxygen radical absorbance capacity-fluorescein values; assay type: functional
BV-2 = assay: Antiinflammatory activity in LPS induced mouse BV-2 cells decrease in release of […] at 5 uM by […] (reference value: 100%); assay type: functional
[2] = biological target: T1, Amyloid-beta precursor protein (Homo sapiens, UniProt P05067); assay: Inhibition of amyloid beta (1 to 42) (unknown origin) self aggregation at 50 uM relative to control
[3] = biological target: T1, Amyloid-beta precursor protein; assay: Inhibition of amyloid beta (1 to 42) (unknown origin) self aggregation assessed as disaggregation relative to control; design: concentration or dose not given beside the values; conditions: concentration not given here
[4] = biological target: T1, Amyloid-beta precursor protein; assay: Inhibition of amyloid beta (1 to 42) (unknown origin) self aggregation
[5] = biological target: T1, Amyloid-beta precursor protein; assay: Inhibition of amyloid beta (1 to 42) (unknown origin) self aggregation assessed as disaggregation

T1 sequence (P05067 whole entry): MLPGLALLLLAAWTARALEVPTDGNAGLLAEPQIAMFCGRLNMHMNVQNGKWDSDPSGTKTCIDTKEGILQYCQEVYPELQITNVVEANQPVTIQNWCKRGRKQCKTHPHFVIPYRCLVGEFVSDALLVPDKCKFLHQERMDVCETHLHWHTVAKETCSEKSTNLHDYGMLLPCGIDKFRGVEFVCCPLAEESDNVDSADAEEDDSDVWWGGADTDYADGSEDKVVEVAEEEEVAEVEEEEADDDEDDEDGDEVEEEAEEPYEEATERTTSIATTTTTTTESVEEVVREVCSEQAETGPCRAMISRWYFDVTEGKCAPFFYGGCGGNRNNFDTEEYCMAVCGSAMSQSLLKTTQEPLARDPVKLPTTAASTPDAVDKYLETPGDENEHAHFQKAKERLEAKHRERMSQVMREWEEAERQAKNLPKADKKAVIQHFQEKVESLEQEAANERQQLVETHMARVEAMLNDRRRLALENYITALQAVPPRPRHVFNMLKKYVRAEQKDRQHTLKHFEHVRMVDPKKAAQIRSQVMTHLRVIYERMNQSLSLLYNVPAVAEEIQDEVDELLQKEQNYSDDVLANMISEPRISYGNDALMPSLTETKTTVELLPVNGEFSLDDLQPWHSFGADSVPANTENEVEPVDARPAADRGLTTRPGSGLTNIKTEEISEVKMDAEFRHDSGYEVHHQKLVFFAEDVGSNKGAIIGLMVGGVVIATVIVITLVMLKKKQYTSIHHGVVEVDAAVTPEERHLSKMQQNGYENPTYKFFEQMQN

SMILES | inhibition [2] [%] | inhibition [3] [%] | IC50 [4] [µM] | IC50 [5] [µM] | Activity index [1] | Nitric oxide release (% of LPS control) (BV-2) [%]
O=c1ccoc(/C=C/c2ccc(F)c(O)c2)c1O | 23.8 | 24 | – | – | 3.19 | 93.87
Cc1c(C)c2c(c(C)c1O)CCC(C)(C(=O)O)O2 (stereo not drawn) | – | – | – | – | 1 | –
CC(C)(C)c1ccc(/C=C/c2occc(=O)c2O)cc1 | 37.7 | 31.6 | – | – | 0.07 | 94.03
CN1CCN(c2ccc(/C=C/c3occc(=O)c3O)cc2)CC1 | 30.6 | 56.1 | – | – | 2.33 | 96.04
O=c1ccoc(/C=C/c2ccc([N+](=O)[O-])cc2)c1O | 56.8 | 62.8 | 38.2 | 26.3 | 0.79 | 88.99
O=c1ccoc(/C=C/c2ccc(N3CCSCC3)cc2)c1O | 53.9 | 62.8 | 46.8 | 28.5 | 1.48 | 98.13
O=c1ccoc(/C=C/c2ccc(O)c(F)c2)c1O | 36.1 | 32.2 | – | – | 2.78 | 86.66
N#Cc1ccc(/C=C/c2occc(=O)c2O)cc1 | 16.8 | 17 | – | – | 1.9 | 88
O=c1ccoc(/C=C/c2ccc(C(F)(F)F)cc2)c1O | 30.5 | 25.9 | – | – | 0.12 | 88.82
O=c1ccoc(/C=C/c2ccc(O)cc2)c1O | 36.7 | 29.6 | – | – | 2.79 | 86.81
O=c1ccoc(/C=C/c2ccc(Cl)cc2)c1O | 30.4 | 26.9 | – | – | 1.02 | 97.73
O=c1ccocc1O | – | – | – | – | 1.75 | 93.85
O=c1ccoc(/C=C/c2ccc(N3CCCCC3)cc2)c1O | 59.6 | 60.5 | 33.4 | 27.2 | 2.21 | 100.49
CN(C)c1ccc(/C=C/c2occc(=O)c2O)cc1 | 53.7 | 47.6 | 47.2 | 42.4 | 0.87 | 92.3
Oc1ccc(/C=C/c2cc(O)cc(O)c2)cc1 [RESVERATROL] | 73.2 | – | – | – | – | 86.97
O=c1ccoc(/C=C/c2ccc(-c3ccccc3)cc2)c1O | 52 | 46.7 | – | – | 0.4 | 87.38
O=c1ccoc(/C=C/c2ccc(N3CCOCC3)cc2)c1O | 50.4 | 65.8 | 49.4 | 23.9 | 2.25 | 100.11

Further lines, with some results ahead:

inhibition [2] [%] | inhibition [3] [%] | IC50 [4] [µM] | IC50 [5] [µM] | SMILES | Activity index [1] | Nitric oxide release (% of LPS control) (BV-2) [%]
28.6 | 15.1 | – | – | Cc1ccc(/C=C/c2occc(=O)c2O)cc1 | 0.32 | 85.2
57.4 | 48.9 | 43.7 | 43.2 | COc1ccc(/C=C/c2occc(=O)c2O)cc1O | 1.62 | 90.08
19.9 | 12.6 | – | – | O=c1ccoc(/C=C/c2ccccc2F)c1O | 1.49 | 56.97
48.5 | 42.9 | – | – | COc1cc(/C=C/c2occc(=O)c2O)ccc1O | 1.96 | 90.67
33.7 | 27.6 | – | – | COC(=O)c1ccc(/C=C/c2occc(=O)c2O)cc1 | 0.25 | 71.82
34 | 39 | – | – | COc1ccc(/C=C/c2occc(=O)c2O)cc1 | 0.75 | 91.49
23.2 | 28.2 | – | – | O=c1ccoc(/C=C/c2cccc(Cl)c2)c1O | 1.21 | 88.17
24.2 | 18.5 | – | – | O=c1ccoc(/C=C/c2cccc(F)c2)c1O | 1.55 | 71.55
50.6 | 45.9 | – | – | O=c1ccoc(/C=C/c2ccc3ccccc3c2)c1O | 1.38 | 102.37
23.5 | 30.9 | – | – | COc1ccccc1/C=C/c1occc(=O)c1O | 0.79 | 77.3
8.6 | 14.8 | – | – | O=c1ccoc(/C=C/c2ccc(F)cc2)c1O | 1.13 | 88.36
27.7 | 19.2 | – | – | O=c1ccoc(/C=C/c2ccccc2Cl)c1O | 1.13 | 54.58
10.4 | 20.6 | – | – | COc1ccc(/C=C/c2occc(=O)c2O)cc1OC | 1.73 | 97.14
13.6 | 42.8 | – | – | COc1cccc(/C=C/c2occc(=O)c2O)c1 | 0.8 | 72.79
7.59 | 8.21 | – | – | O=c1ccoc(/C=C/c2ccccc2)c1O | 0.52 | 78.21
